From the NIST ThermoML archive (doi:10.1016/j.fluid.2014.08.002)
Numbers after ± are expanded uncertainties.

Settings: 298.15 K; 101.3 kPa; Liquid; Vibrating tube method
Work on `CC1(C)OCCO1` [2,2-dimethyl-1,3-dioxolane] yielded a mass density of 944.2 ± 0.3 kg/m3.
With `CCO` [ethanol] the mass density was 789.5 ± 0.2 kg/m3.
For `CCCCCCC` [heptane], the mass density was 683.8 ± 0.3 kg/m3.
Work on `Cc1ccccc1` [toluene] yielded a mass density of 866.9 ± 0.2 kg/m3.
